Among the data in US20240279205A1, “NOVEL BENZIMIDAZOLE DERIVATIVE” (Carna Biosciences, Inc., priority 2020, published 2024) are IC50, hSTING inhibitory activity and IFN-β bioinhibitory activity values, retold here.

Where a name gives a salt, the structure may show the parent alone.

For assay [1], the system named is STING activation (IFN-β production in THP-1 cells). The experiment in a line: Human IFN-β production inhibition test by cGAMP stimulation in THP-1 cells. The arrangement: IFN-β bioinhibitory activity: scale not given here. As to conditions: 2'3'-cGAMP transfection, 18 hours, IFN-β ELISA; for IC50: Homo sapiens, read-out: IFN-β bioinhibitory activity. It is filed as cell-based. The essentials: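 PMA-primed (100 nM, overnight) THP-1 cells pretreated 1 h with compound at 0.001 to 1 μM (0.1% DMSO), then transfected with 0.12 μg/well 2′3′-cGAMP and cultured 18 hours. Supernatant IFN-β measured by ELISA; IC50 by regression against log concentration, normalised to cGAMP-only (100%) and unstimulated (0%) controls.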
A general note: ELISA stands for enzyme-linked immunosorbent assay.

For a further assay, the target named is T1, human STING (hSTING) (Homo sapiens, UniProt Q86WV6).
T1 construct: host or cells: HEK-Blue ISG cells (HEK293-derived SEAP reporter line)
The experiment in a line: Inhibition test of intracellular human STING (hSTING) pathway using SEAP reporter cells (HEK-Blue ISG), stimulation with Compound 3. It is filed as cell-based. More on the design: hSTING inhibitory activity: scale not given here. As to conditions: Compound 3 10 nM stimulation, 21 hours; for IC50: read-out: hSTING inhibitory activity. The essentials:
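IC50 derived by regressing inhibition rate against log compound concentration (0.1 to 10 μM final, added 1 h before agonist), with 0% and 100% set by wells without and with 10 nM Compound 3. SEAP colour reaction read after 21 h stimulation of HEK-Blue ISG reporter cells.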

T1 sequence (Q86WV6 whole entry H232R): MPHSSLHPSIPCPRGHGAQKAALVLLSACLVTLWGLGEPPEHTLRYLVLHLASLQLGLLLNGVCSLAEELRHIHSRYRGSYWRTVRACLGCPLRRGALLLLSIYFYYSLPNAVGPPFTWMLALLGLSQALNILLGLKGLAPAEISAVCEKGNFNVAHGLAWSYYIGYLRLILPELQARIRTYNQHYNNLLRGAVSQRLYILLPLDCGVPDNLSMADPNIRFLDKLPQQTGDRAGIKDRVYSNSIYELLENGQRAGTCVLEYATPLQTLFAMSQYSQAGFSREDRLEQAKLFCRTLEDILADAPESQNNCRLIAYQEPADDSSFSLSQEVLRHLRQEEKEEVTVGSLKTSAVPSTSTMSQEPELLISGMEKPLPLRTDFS

For `COc1cc2c(cc1C(F)(F)F)nc(Nc1c[nH]c3ccc(Cl)cc13)n2C` [Embodiment 263, N-(5-Chloro-1H-indol-3-yl)-6-methoxy-1-methyl-5-(trifluoromethyl)-1H-benzo[d]imidazol-2-amine], the IC50 in assay [1] was in the range of 100 to 1000 nM. Moreover, the hSTING inhibitory activity entry on human STING (hSTING) was “* *”.

`Cn1c(Nc2c[nH]c3ccc(C#N)cc23)nc2cc(C(F)(F)F)cc(F)c21` [Embodiment 257, 3-{ [7-fluoro-1-methyl-5-(trifluoro methyl)-1H-benzo[d]imidazol-2-yl]amino}-1H-indole-5-carbonitrile]: the IFN-β bioinhibitory activity entry in assay [1] is on record as “* *”. Moreover, on human STING (hSTING), the hSTING inhibitory activity result is given as “* * *”.

For the molecule `Clc1ccc2[nH]cc(Nc3nc4cc(Br)ccc4[nH]3)c2n1` [Embodiment 95, 5-bromo-N-(5-chloro-1H-pyrrolo [3,2-b]pyridin-3-yl)-1H-benzo [d]imidazol-2-amine formate], the IFN-β bioinhibitory activity result in assay [1] was “* * *”. The hSTING inhibitory activity result at human STING (hSTING) was “* *”.

Consider `Cn1c(Nc2c[nH]c3ncc(Cl)cc23)nc2cc(C(F)(F)F)ccc21` [Embodiment 109, N-(5-Chloro-1H-pyrrolo[2,3-b]pyridin-3-yl)-1-methyl-5-(trifluoromethyl)-1H-benzo[d] imidazol-2-amine], for which, in assay [1], the IC50 was in the range of 100 to 1000 nM. Moreover, the hSTING inhibitory activity result on human STING (hSTING) was “* *”.

In the case of `Clc1ccc2[nH]cc(Nc3nc4cc(N5CCCCC5)ccc4[nH]3)c2n1` [Embodiment 151, N-(5-Chloro-1H-pyrrolo[3,2-b]pyridin-3-yl)-5-(piperidin-1-yl)-1H-benzo[d]imidazol-2-amine], the IC50 in assay [1] lay in the range of 100 to 1000 nM. In addition, the hSTING inhibitory activity result on human STING (hSTING) is reported as “* *”.

With `FC(F)(F)c1ccc2c(c1)nc(Nc1c[nH]c3ccc(Cl)nc13)n2C1CC1` [Embodiment 186, N-(5-Chloro-1H-pyrrolo[3,2-b]pyridin-3-yl)-1-cyclopropyl-5-(trifluoromethyl)-1H-benzo[d] imidazol-2-amine], the IC50 in assay [1] is 100 to 1000 nM; at human STING (hSTING), 1 to 10 µM.

For `Clc1ccc2[nH]cc(Nc3nc4cc(Oc5ccccc5)ccc4[nH]3)c2n1` [Embodiment 35, N-(5-chloro-1H-pyrrolo[3,2-b]pyridin-3-yl)-5-phenoxy-1H-benzo[d]imidazol-2-amine], in assay [1], the IC50 fell in the range of 100 to 1000 nM. Further, the hSTING inhibitory activity result at human STING (hSTING) is “* * *”.

As to `Clc1ccc2[nH]c(Nc3c[nH]c4ccc(Br)nc34)nc2c1` [Embodiment 32, N-(5-bromo-1H-pyrrolo[3,2-b]pyridin-3-yl)-5-chloro-1H-benzo[d]imidazol-2-amine], the IFN-β bioinhibitory activity result in assay [1] is “* *”. Further, the hSTING inhibitory activity result at human STING (hSTING) is “* *”.

In the case of `COCCn1c(Nc2c[nH]c3ccc(Br)nc23)nc2ccc(Oc3ccccc3)cc21` [Embodiment 93, N-(5-bromo-1H-pyrrolo[3,2-b]pyridin-3-yl)-1-(2-methoxyethyl)-6-phenoxy-1H-benzo[d]imidazol-2-amine], in assay [1], the IC50 lay within 100 to 1000 nM. At human STING (hSTING), the hSTING inhibitory activity entry was “* * *”.

For the molecule `CCc1ccc2[nH]cc(Nc3nc4ccc(Oc5ccc(F)cc5)cc4n3C3CC3)c2n1` [Embodiment 190, 1-Cyclopropyl-N-(5-ethyl-1H-pyrrolo[3,2-b]pyridin-3-yl)-6-(4-fluorophenoxy)-1H-benzo[d]imidazole-2-amine formate], the IC50 in assay [1] was at least 1000 nM; at human STING (hSTING) it was 1 to 10 µM.

With `Cn1c(Nc2c[nH]c3cc(F)c(F)cc23)nc2cc(C(F)(F)F)cc(F)c21` [Embodiment 261, N-(5,6-difluoro-1H-indol-3-yl)-7-fluoro-1-methyl-5-(trifluoromethyl)-1H-benzo[d]imidazol-2-amine], the IFN-β bioinhibitory activity entry in assay [1] is “* *”. For the same molecule, the hSTING inhibitory activity entry on human STING (hSTING) is reported as “* * *”.

Regarding `CN(C)n1c(Nc2c[nH]c3ccc(Cl)cc23)nc2cc(OC(F)(F)F)ccc21` [Embodiment 258, N2-(5-Chloro-1H-indol-3-yl)-N1, N1-dimethyl-5-(trifluoromethoxy)-1H-benzo[d]imidazole-1,2-diamine], in assay [1], the IFN-β bioinhibitory activity result was “* *”. Besides, the hSTING inhibitory activity entry on human STING (hSTING) is “* * *”.

Regarding `Brc1ccc2[nH]cc(Nc3nc4cc(Oc5ccccc5)ccc4[nH]3)c2c1` [Example 3, N-(5-bromo-1H-indol-3-yl)-5-phenoxy-1H-benzo[d]imidazol-2-amine], the IFN-β bioinhibitory activity entry in assay [1] was “* *”. Also, at human STING (hSTING), the hSTING inhibitory activity entry is “* *”.

`Fc1ccc2c(c1)nc(Nc1c[nH]c3ccc(Cl)cc13)n2C1CC1` [Embodiment 189, N-(5-Chloro-1H-indol-3-yl)-1-cyclopropyl-5-fluoro-1H-benzo[d] imidazol-2-amine]: the IC50 in assay [1] lay within 100 to 1000 nM. For the same molecule, the hSTING inhibitory activity result at human STING (hSTING) is “* *”.

Consider `Brc1ccc2[nH]cc(Nc3nc4c(Br)cccc4[nH]3)c2c1` [Example 24, 4-bromo-N-(5-bromo-1H-indol-3-yl)-1H-benzo[d]imidazol-2-amine], for which the IFN-β bioinhibitory activity entry in assay [1] is reported as “* *”. Further, the hSTING inhibitory activity entry at human STING (hSTING) is on record as “* *”.

As to `CC#Cc1ccc2[nH]c(Nc3c[nH]c4ccc(Cl)nc34)nc2c1` [Embodiment 136, N-(5-Chloro-1H-pyrrolo[3,2-b]pyridin-3-yl)-5-(prop-1-yn-1-yl)-1H-benzo[d]imidazole-2-amine], the IC50 in assay [1] is 100 to 1000 nM. The hSTING inhibitory activity entry at human STING (hSTING) is “* *”.

Regarding `Fc1ccc2[nH]c(Nc3c[nH]c4ccc(Cl)nc34)nc2c1F` [Embodiment 82, N-(5-Chloro-1H-pyrrolo[3,2-b]pyridin-3-yl)-4,5-difluoro-1H-benzo[d]imidazol-2-amine], the IFN-β bioinhibitory activity result in assay [1] is on record as “* *”. At human STING (hSTING), the hSTING inhibitory activity entry is reported as “* *”.

On to `C=C(C)c1ccnc2c(Nc3nc4cc(Oc5ccccc5)ccc4[nH]3)c[nH]c12` [Embodiment 144, 5-phenoxy-N-[7-(prop-1-en-2-yl)-1H-pyrrolo[3,2-b]pyridin-3-yl]-1H-benzo[d]imidazole-2-amine], for which the IC50 in assay [1] is at least 1000 nM. Besides, at human STING (hSTING), the hSTING inhibitory activity result was “* *”.

As for `COc1ccc2c(c1)nc(Nc1c[nH]c3ccc(Cl)nc13)n2C` [Embodiment 159, N-(5-Chloro-1H-pyrrolo[3,2-b]pyridin-3-yl)-5-methoxy-1-methyl-1H-benzo[d]imidazol-2-amine], the values for the IC50 (in assay [1]; at human STING (hSTING)) were 100 to 1000 nM and 1 to 10 µM, respectively.

Regarding `CC(C)n1c(Nc2c[nH]c3ccc(Cl)nc23)nc2ccc(Oc3ccccc3)cc21` [Embodiment 117, N-(5-Chloro-1H-pyrrolo[3,2-b]pyridin-3-yl)-1-isopropyl-6-phenoxy-1H-benzo[d]imidazol-2-amine], the IC50 in assay [1] fell in the range of 100 to 1000 nM. Further, at human STING (hSTING), the hSTING inhibitory activity result is “* * *”.

For the molecule `Clc1ccc2[nH]cc(Nc3nc4ccc(Oc5ccccc5)cc4n3C3CC3)c2n1` [Embodiment 119, N-(5-Chloro-1H-pyrrolo[3,2-b]pyridin-3-yl)-1-cyclopropyl-6-phenoxy-1H-benzo[d]imidazol-2-amine], the IC50 in assay [1] lay in the range of 100 to 1000 nM. Also, the hSTING inhibitory activity entry on human STING (hSTING) is on record as “* * *”.

For `C=C(C)c1ccc2[nH]c(Nc3c[nH]c4ccc(Cl)nc34)nc2c1` [Embodiment 100, N-(5-chloro-1H-pyrrolo[3,2-b]pyridin-3-yl)-5-(prop-1-en-2-yl)-1H-benzo[d]imidazole-2-amine], the IFN-β bioinhibitory activity result in assay [1] was “* * *”. Further, the hSTING inhibitory activity entry on human STING (hSTING) is “* * *”.

For `CC(C)n1c(Nc2c[nH]c3ccc(Cl)cc23)nc2cc(C(F)(F)F)ccc21` [Embodiment 218, N-(5-Chloro-1H-indol-3-yl)-1-isopropyl-5-(trifluoromethyl)-1H-benzo[d]imidazol-2-amine], in assay [1], the IFN-β bioinhibitory activity result is “* *”. Moreover, on human STING (hSTING), the hSTING inhibitory activity result is listed as “* * *”.

Turning to `Cc1ccc2[nH]cc(Nc3nc4cc(C(F)(F)F)cc(F)c4n3C)c2c1` [Embodiment 256, 7-fluoro-1-methyl-N-(5-methyl-1H-indol-3-yl)-5-(trifluoromethyl)-1H-benzo[d]imidazol-2-amine], the IFN-β bioinhibitory activity result in assay [1] is recorded as “* *”. Also, the hSTING inhibitory activity result at human STING (hSTING) is given as “* * *”.

As to `Cc1cc(C(F)(F)F)cc2nc(Nc3c[nH]c4ccc(Cl)cc34)n(C)c12` [Embodiment 248, N-(5-Chloro-1H-indol-3-yl)-1,7-dimethyl-5-(trifluoromethyl)-1H-benzo[d]imidazol-2-amine], in assay [1], the IFN-β bioinhibitory activity result is “* *”. The hSTING inhibitory activity entry on human STING (hSTING) is given as “* * *”.

For `N#CCCn1c(Nc2c[nH]c3ccc(Cl)cc23)nc2cc(C(F)(F)F)ccc21` [Embodiment 259, 3-{2-[(5-chloro-1H-indol-3-yl)amino]-5-(trifluoromethyl)-1H-benzo [d]imidazol-1-yl]propanenitrile], the IC50 in assay [1] was in the range of 100 to 1000 nM. Besides, at human STING (hSTING), the hSTING inhibitory activity entry was “* *”.

On to `C#Cc1ccc2[nH]cc(Nc3nc4cc(Oc5ccccc5)ccc4[nH]3)c2n1` [Embodiment 111, N-(5-ethynyl-1H-pyrrolo[3,2-b]pyridin-3-yl)-5-phenoxy-1H-benzo[d]imidazol-2-amine formate], for which the IFN-β bioinhibitory activity result in assay [1] is listed as “* *”. Further, the hSTING inhibitory activity result at human STING (hSTING) is on record as “* * *”.

For `N#Cc1ccc2[nH]c(Nc3c[nH]c4ccc(Br)cc34)nc2c1` [Example 19, 2-[(5-bromo-1H-indol-3-yl)amino]-1H-benzo[d]imidazole-5-carbonitrile], in assay [1], the IC50 fell in the range of 100 to 1000 nM. In addition, the hSTING inhibitory activity result on human STING (hSTING) is recorded as “* *”.
